Holding throughout (type): in vivo, human
In series [1] the test system is patients with Tay-Sachs disease. Kind of series: Case studies, Tay-Sachs disease (SARA, SCAFI, MoCA). From the text: For example, to evaluate overall neurological status, mDRS, a four-domain scale (ambulation, manipulation, language and swallowing), may be applied. Cerebellar function may be evaluated using SARA, an eight-item clinical rating scale (gait, stance, sitting, speech, fine motor function and taxis; range 0-40, where 0 is the best neurological status and 40 the worst), and SCAFI, comprising the 8-m-Walking-Time (8MW; performed by having patients walking twice as quickly as possible from one line to another excluding turning), 9-Hole-Peg-Test (9HPT) and the number of “PATA” repetitions over 10 s. Subjective impairment and quality of life may be evaluated using the EQ-5D-5L questionnaire and VAS. To assess ocular motor function, 3-dimensional videooculography (EyeSeeCam) may be used to measure the peak velocity of saccades, gain of smooth pursuit, peak slow phase velocity of gaze-evoked nystagmus (gaze-holding function), peak slow phase velocity of optokinetic nystagmus, and gain of horizontal vestibulo-ocular reflex. To evaluate the cognitive state, WAIS-R or WISC-IV, and MoCA, assessing different cognitive domains, including attention and concentration, executive functions, memory, language, visuoconstructional skills, conceptual thinking, calculations, and orientation with a maximum of 30 points and a cut-off score of 26, may be used. The skilled person will know how to perform these and other such tests.
The day following this examination, the patient was started on therapy with acetyl-leucine, at a dose of 3 g per day for the first week, followed by a dose of 5 g per day for the second week onwards.
The day of the examination, the patient was started on therapy with acetyl-leucine at a dose of 3 g per day for the first week, followed by a dose of 5 g per day for the second week onwards.
The patient was started on therapy with acetyl-leucine at a dose of 1.5 g per day for the first week, followed by a dose of 3 g per day for the second week onwards.

The test system of series [2] is patients with ataxia with oculomotor apraxia type 4. Kind of series: Case study, ataxia with oculomotor apraxia type 4. The settings on record: AOA4 youngest sibling. From the text: In this case study, four patients (male siblings) suffered from, and were later diagnosed with, ataxia with oculomotor apraxia type 4. The older three siblings […], at the time of disease onset. […] The older siblings began treatment with acetyl-leucine […], respectively, and have been on the treatment for approximately four years. No long-term clinical data is available for these three patients.
The youngest sibling was […] at the time of onset. […] No long-term clinical data is available for the youngest sibling.

Series [3] concerns patient with corticobasal syndrome. In words: Case study, corticobasal syndrome. The procedure: Gait analysis was performed before treatment commenced.
The test system of series [4] is patients with downbeat nystagmus. In words: Case studies, downbeat nystagmus.
Setting [5] is: DBN Patient 1, approximately 14 weeks.

On to `CC(=O)NC(CC(C)C)C(=O)O` (racemic) [acetyl-DL-leucine], for which, in series [1] (Tay-Sachs Patient 1), the Overall symptoms result is given as “improvement in symptoms”. Besides, the Clinical re-examination entry was “stable condition with slightly improved cognitive function but had deterioration of stance, gait and fine motor function” in series [1] (Tay-Sachs Patient 1, after four months); “improved fine motor skills and reduced hand tremor” in series [1] (Tay-Sachs Patient 1, after one month, 3 g then 5 g per day); “increased enunciation, improved postural stability, and enhanced cognitive function” in series [1] (Tay-Sachs Patient 2, after one month, 3 g then 5 g per day); “increased fine motor skills” in series [1] (Tay-Sachs Patient 3, after one month, 1.5 g then 3 g per day). For the same compound, the “Fine motor skills and speech (reported by mother)” value in series [2] was “improved fine motor skills and improved speech at each age compared to their older siblings”. Also, in series [3] (after 20 days), the Frequency of falls result is “significant reduction in the frequency of falls”. Further, in series [3] (after 20 days), the “Gait analysis parameters (summary)” value is listed as “objective improvement in gait analysis parameters”. Moreover, the Dizziness symptoms result in series [3] (after 20 days, 3 g then 5 g per day) was “improvement of dizziness symptoms”. The Dizziness after suspension result in series [3] (two days after suspension of treatment) was “increase of dizziness symptoms”. Moreover, the “Effect of temporary suspension of the medication” value in series [4] (DBN Patient 1) is on record as “considerable deterioration”. In series [4] (DBN Patient 1, 5 gram per day), the Side-effects entry is “no side-effects resulted”. Further, the “Benefit (patient report)” value in series [4] (DBN Patient 1, after 10 days, 3 g then 5 gram per day) is listed as “significant benefit”. Besides, the “Nystagmus (clinical examination)” value in series [4] (setting [5]) is on record as “reduction of the nystagmus”. Besides, the “Postural sway (posturography)” value in series [4] (setting [5]) is recorded as “reduction of postural sway”. Moreover, in series [4] (DBN Patient 1, approximately 14 weeks after starting), the “Oscillopsia / reading and writing” value was “reduced oscillopsia”. Besides, the Gait entry in series [4] (DBN Patient 2, 3 g/day then 5 g/day) was “improvement of gait”. In addition, in series [4] (DBN Patient 2, on treatment), the “Downbeat nystagmus (video-oculography)” value is recorded as “improved”.

The values above are taken from patent US12458614B2, “Therapeutic agents for improved mobility and cognitive function and for treating neurodegenerative diseases and lysosomal storage disorders” (priority 2017, dated 2025).
